Patent US12246009B2, “Compositions and methods for treating neurodegenerative, myodegenerative, and lysosomal storage disorders” (GEORGETOWN UNIVERSITY, priority 2018, dated 2025)
“Also recorded” adds a separate entry of the source.

How the values were obtained:
B35 cells = test: Lactate dehydrogenase (LDH) assay, cytotoxicity / cell viability; type: cell-based; settings: for LDH measured in the media (cell death / toxicity): 24 hour transfection with pTau or α-synuclein
Experimental: Rat neuroblastoma B35 cells were grown in Dulbecco's Modified Eagle's Medium (DMEM) with 10% Fetal Bovine Serum (FBS) and 1% penicillin/streptomycin and incubated at 37° C. with 5% CO2. For the experiments, cells were transferred to 12-well plates (Cat. #150628, ThermoFisher, Waltham, MA) and grown to at least 70% confluence. Transient transfection was performed with 3 μg P301 L tau (Cat. #30145, Addgene) cDNA or 3 μg human α-synuclein cDNA using Fugene HD transfection reagent (Cat. #E2311, Promega, Madison WI) for 24 hours. […] Cell culture media was collected and cells were harvested using sodium-tris, EDTA, NP-40 (STEN) buffer and centrifuged at 10,000×g for 20 minutes at 4′C and supernatant was collected. Cell viability was determined via lactate dehydrogenase assay (Cat. #88954, Thermofisher) and MTT assay (Cat. #V13154, Thermofisher). Protein was extracted by removing culture medium and adding 0.2 ml 1× STEN buffer (50 mM. Tris (pH 7.6), 150 mM NaCl, 2 mM EDTA, 0.2% NP-40, 0.2% BSA, 20 mM. PMSF and protease cocktail inhibitor) to cell layer and incubated on ice for 10 minutes. The bottom of the well was scraped and allowed to incubate on ice for an additional 10 minutes. Cell lysates were collected, stored at −80° C., and used for additional analyses.
Cellular cytotoxicity was quantitatively measured by assessment of LDH; a cytosolic enzyme that is released from damaged cells into the cellular media, after exposure to the drug 5 hours after initial dosage. The cell culture media was collected, and an aliquot was coupled with a lactate and NAD+. LDH catalyzes the reaction that converts lactate into pyruvate to produce NADH. NADH, in turn, reduces a tetrazolium salt (INT) into a red formazan product. The amount of LDH in the media is proportional to the amount of formazan, which was measured at 490 nm. The absorbance at 680 nm, to measure the background signal from the instrument, was subtracted from the absorbance at 490 nm to calculate the LDH activity.

pTau (181) = pTau (181) ELISA in pTau transfected B35 cells; type: cell-based, rat; settings: 24 hour transfection
Tau (HT7) = Tau (HT7) in Tau transgenic mice; type: in vivo, mouse; settings: seven days of treatment, 1.25 mg/kg and 2.5 mg/kg
DDR1 = target: T1, DDR1 (Mus musculus, UniProt Q03146); test: Phosphorylated (active) DDR1 (pMCK10) immunoblot in rTG4510 mice; type: in vivo; settings: for phosphorylated (active) DDR1 (pMCK10), immunoblot: 1.25 mg/kg or 2.5 mg/kg i.p.
T1 construct: Brains were collected and homogenized in 1.0 ml 1× STEN buffer; from tissue; host or cells: brain of rTg4510 or TgAPP mice
T1 sequence (Q03146 20-911): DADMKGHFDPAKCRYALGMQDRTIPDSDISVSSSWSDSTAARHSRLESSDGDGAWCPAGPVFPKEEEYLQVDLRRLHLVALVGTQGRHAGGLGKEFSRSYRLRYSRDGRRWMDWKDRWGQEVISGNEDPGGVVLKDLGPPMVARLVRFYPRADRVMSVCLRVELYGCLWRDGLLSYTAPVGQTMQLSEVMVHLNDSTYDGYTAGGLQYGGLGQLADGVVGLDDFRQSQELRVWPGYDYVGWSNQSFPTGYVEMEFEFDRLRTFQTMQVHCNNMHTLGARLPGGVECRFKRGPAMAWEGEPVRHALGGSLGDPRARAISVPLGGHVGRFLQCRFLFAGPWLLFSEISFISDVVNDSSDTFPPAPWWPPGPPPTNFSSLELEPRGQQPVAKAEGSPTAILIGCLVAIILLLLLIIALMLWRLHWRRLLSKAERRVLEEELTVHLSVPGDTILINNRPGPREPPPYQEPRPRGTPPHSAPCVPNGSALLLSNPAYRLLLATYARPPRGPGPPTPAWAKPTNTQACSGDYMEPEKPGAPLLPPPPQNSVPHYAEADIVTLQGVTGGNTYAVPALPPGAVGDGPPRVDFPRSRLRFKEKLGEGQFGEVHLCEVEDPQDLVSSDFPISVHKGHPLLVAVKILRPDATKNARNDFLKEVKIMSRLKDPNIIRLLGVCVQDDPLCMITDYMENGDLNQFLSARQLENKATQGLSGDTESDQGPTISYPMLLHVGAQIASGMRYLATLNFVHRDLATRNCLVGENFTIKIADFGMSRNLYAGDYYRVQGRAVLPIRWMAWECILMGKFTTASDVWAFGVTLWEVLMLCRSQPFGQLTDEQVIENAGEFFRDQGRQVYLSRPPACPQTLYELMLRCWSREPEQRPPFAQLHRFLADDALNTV

Src = target: T2, Src (Mus musculus, UniProt P05480); test: Activated Src immunoblot in rTG4510 mice; type: in vivo; settings: rTG4510 mice, 1.25, 2.5 or 5 mg/kg i.p., 7 days
T2 construct: Brains from treated mice compared with DMSO treated mice were homogenized in STEN lysis buffer; from tissue; host or cells: brain of rTg4510 mice
T2 sequence (P05480 whole entry): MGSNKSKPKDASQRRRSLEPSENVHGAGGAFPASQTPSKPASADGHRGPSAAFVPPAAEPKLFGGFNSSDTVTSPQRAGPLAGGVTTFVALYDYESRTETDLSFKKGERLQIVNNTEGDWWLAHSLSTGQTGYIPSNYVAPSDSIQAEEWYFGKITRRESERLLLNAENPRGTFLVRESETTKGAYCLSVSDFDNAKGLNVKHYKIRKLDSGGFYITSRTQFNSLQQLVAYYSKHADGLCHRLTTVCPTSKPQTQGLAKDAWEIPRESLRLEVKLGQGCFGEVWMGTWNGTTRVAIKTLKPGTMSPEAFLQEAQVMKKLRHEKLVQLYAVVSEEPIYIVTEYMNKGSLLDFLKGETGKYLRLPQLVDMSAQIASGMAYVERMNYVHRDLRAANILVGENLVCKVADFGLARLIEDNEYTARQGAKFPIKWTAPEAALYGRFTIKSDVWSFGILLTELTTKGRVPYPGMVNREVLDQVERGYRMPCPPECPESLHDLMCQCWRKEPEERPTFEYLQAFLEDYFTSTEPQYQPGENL

Ab1 [1] = target: T3, Ab1 (Mus musculus, UniProt P00520); test: Activated Ab1 immunoblot in rTG4510 mice; type: in vivo; settings: rTG4510 mice, 1.25, 2.5 or 5 mg/kg i.p., 7 days
T3 construct: Brains from treated mice compared with DMSO treated mice were homogenized in STEN lysis buffer; from tissue; host or cells: brain of rTg4510 or TgAPP mice
T3 sequence (P00520 whole entry): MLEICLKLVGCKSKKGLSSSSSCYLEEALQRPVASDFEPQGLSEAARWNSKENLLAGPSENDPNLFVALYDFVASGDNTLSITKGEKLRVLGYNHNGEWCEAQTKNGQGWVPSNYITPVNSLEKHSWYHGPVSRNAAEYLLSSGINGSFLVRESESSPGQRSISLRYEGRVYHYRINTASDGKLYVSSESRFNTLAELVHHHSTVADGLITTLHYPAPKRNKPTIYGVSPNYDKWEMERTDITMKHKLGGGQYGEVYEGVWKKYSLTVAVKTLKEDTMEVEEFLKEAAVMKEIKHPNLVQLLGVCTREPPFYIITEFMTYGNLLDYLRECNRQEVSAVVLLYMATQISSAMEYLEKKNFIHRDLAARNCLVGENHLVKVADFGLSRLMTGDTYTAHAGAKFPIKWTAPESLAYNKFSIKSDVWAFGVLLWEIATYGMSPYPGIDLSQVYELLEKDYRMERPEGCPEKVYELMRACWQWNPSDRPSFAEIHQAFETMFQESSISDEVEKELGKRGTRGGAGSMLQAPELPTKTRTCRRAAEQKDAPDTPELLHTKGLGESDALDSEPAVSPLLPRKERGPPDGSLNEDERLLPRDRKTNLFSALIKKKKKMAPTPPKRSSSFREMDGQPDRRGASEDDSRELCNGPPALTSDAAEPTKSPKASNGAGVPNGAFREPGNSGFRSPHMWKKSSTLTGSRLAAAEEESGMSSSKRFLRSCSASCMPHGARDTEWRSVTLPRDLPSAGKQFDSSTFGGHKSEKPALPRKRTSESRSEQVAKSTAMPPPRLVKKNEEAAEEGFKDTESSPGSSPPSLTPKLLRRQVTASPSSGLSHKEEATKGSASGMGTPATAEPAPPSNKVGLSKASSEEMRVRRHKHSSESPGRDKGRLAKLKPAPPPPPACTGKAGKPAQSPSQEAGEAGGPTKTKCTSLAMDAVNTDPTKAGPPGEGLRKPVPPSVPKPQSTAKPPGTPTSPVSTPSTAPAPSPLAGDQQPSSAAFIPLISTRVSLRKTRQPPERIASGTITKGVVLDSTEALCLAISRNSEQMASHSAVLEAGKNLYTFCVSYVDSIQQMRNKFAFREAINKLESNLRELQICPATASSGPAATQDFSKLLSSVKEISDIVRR

human alpha-synuclein = test: Human alpha-synuclein ELISA and immunoblot in A53T mice; type: in vivo, mouse; settings: 2.5 mg/kg i.p.; for alpha-synuclein level in A53T mice: vs DMSO
dopamine = test: Dopamine and homovanillic acid (HVA) levels in A53T mice; type: in vivo, mouse; settings: 2.5 mg/kg i.p., 21 days
A53T mice = test: Open field test in A53T mice; type: in vivo, mouse; settings: 60-minute trial
Ab1 [2] = target: T3, Ab1; test: Activated (phosphorylated) Ab1 (245) immunoblot in transgenic APP mice; type: in vivo; settings: i.p., 21 days
[3] = tested on: human phosphorylated tau (Ser396); test: Human phosphorylated tau (Ser396) ELISA in transgenic APP mice; type: in vivo, mouse; settings: 2.5 mg/kg i.p., 21 days
hippocampus of APP mice = test: Nissl staining of hippocampal sections of APP mice (cell death); settings: 1.25 mg/kg and 2.5 mg/kg

With `Cc1cccc(-c2cc3nccc(Nc4ccccc4)c3s2)c1` [BK40143, N-Phenyl-2-(m-tolyl)thieno[3,2-b]pyridin-7-amine] the “lactate dehydrogenase (LDH), neuroprotective effect” value (B35 cells; 1 μM, 16 hours of treatment, compared to control) was “decrease”, the “LDH measured in the media (cell death / toxicity)” value (B35 cells; five hours of treatment) was “does not result in toxicity or cell death” and the “LDH measured in the media (cell death / toxicity)” value (B35 cells; five hours of treatment, listed as BK41043) was “without any change to LDH levels”. For the same compound, the “cell viability via LDH” value (B35 cells; five hours of treatment, with decreasing concentrations) was “stepwise increase in cell viability”, the “pTau (181) levels” value (pTau (181)) was “reduces pTau (181) levels” and the “Tau (HT7) level” value (Tau (HT7)) was “significantly reduced”. For the same compound, the “phosphorylated (active) DDR1 (pMCK10), immunoblot” value (DDR1; rTG4510 mice, 7 days) was “deactivated DDR; also recorded: deactivated DDR1”, the “phosphorylated (active) DDR1 (pMCK10), immunoblot” value (DDR1; rTG4510 mice, 7 days, listed as BK-40143) was “in vivo inhibition of DDR1” and the “deactivation of DDR1 (phosphorylated DDR1 immunoblot)” value (DDR1; rTG4510 mice, 5 mg/kg i.p., 7 days) was “not”. The “deactivation of DDRs” value (DDR1; rTG4510 tauopathy mouse model, i.p., 7 consecutive days) was “about 50%”, the “activated Src, immunoblot” value (Src) was “did not engage” and the “activated Src, immunoblot” value (Src; listed as BK-40143) was “does not engage”. For the same compound, the “activated Ab1, immunoblot” value (Ab1 [1]) was “did not engage”, the “activated Ab1, immunoblot” value (Ab1 [1]; listed as BK-40143) was “does not engage” and the “reduction in the level of human alpha-synuclein, ELISA” value (human alpha-synuclein; 21 consecutive days, vs DMSO treated A53T mice) was 39%. For the same compound, the “alpha-synuclein level in A53T mice” value (human alpha-synuclein; 21 consecutive days, 2.5 mg/kg) was “significantly reduces”, the “alpha-synuclein level in A53T mice” value (human alpha-synuclein; 21 consecutive days, listed as BK-40143, 2.5 mg/kg) was “significantly decreased” and the “reduction in alpha-synuclein, immunoblots” value (human alpha-synuclein; 21 days, immunoblots mirrored the ELISA) was 40%. The “level of the dopamine metabolite homovanillic acid (HVA)” value (dopamine) was “increase”, the “increase of overall level of dopamine” value (dopamine; 2.5 mg/kg) was 30% and the “increase of overall level of dopamine” value (dopamine; listed as BK-40143, 2.5 mg/kg) was “about 30%”. The “total distance travelled, open field” value (A53T mice) was “did not show any difference”, the “total time spent moving, open field” value (A53T mice) was “did not show any difference” and the “velocity of movements, open field” value (A53T mice) was “significantly increased”. For the same compound, the “activated (phosphorylated) Ab1 (245)” value (Ab1 [2]) was “does not engage Ab1; also recorded: did not engage Ab1”, the “reduction of human phosphorylated tau (Ser396)” value [3] was “over 80%” and the “cell death in the hippocampus (Nissl staining intensity)” value (hippocampus of APP mice) was “does not cause cell death”.
